Blank lines part the entries; values can stand above or below the molecule they belong to.
Experiment: photoluminescence quantum yield (fraction); solvent given as SMILES

SMILES: CCN1C(=CC=Cc2n(CC)c3cc(Cl)c(Cl)cc3[n+]2CC)N(CC)c2cc(Cl)c(Cl)cc21
- photoluminescence quantum yield (in CC#N): 0.024
- photoluminescence quantum yield (in CCCCCCO): 0.058
- photoluminescence quantum yield (in CCCCO): 0.042
- photoluminescence quantum yield (in CCCO): 0.033
- photoluminescence quantum yield (in CCO): 0.023
- photoluminescence quantum yield (in CO): 0.016
- photoluminescence quantum yield (in CS(C)=O): 0.055
- photoluminescence quantum yield (in OCC(O)CO): 0.36
- photoluminescence quantum yield (in OCCO): 0.075

SMILES: CCCC1=Cc2nc1ccc1[nH]c(cc1CCC)c1nc(c(OC(C)=O)cc3[nH]c2cc3CCC)C(CCC)=C1
- photoluminescence quantum yield (in Cc1ccccc1): 0.28

SMILES: N#C/C(=C\c1ccc(C#N)cc1)c1nc(-c2ccc(Cl)cc2)cs1
- photoluminescence quantum yield (in CC#N): 0.18

SMILES: CN(C)c1ccc2c(c1)C(C)(C)C(=O)C=C2
- photoluminescence quantum yield (in O): 0.13

SMILES: C#CCN1C(=O)/C(=C/c2cc(OC(C)C)ccc2OC(C)C)N=C1C
- photoluminescence quantum yield (in C1COCCO1): 0.108
- photoluminescence quantum yield (in CC#N): 0.134
- photoluminescence quantum yield (in CC(C)=O): 0.12
- photoluminescence quantum yield (in CCCCCC): 0.089
- photoluminescence quantum yield (in CCCCO): 0.029
- photoluminescence quantum yield (in CCCO): 0.08
- photoluminescence quantum yield (in CCO): 0.025
- photoluminescence quantum yield (in CCOC(C)=O): 0.101
- photoluminescence quantum yield (in CN(C)C=O): 0.171
- photoluminescence quantum yield (in CO): 0.019
- photoluminescence quantum yield (in CS(C)=O): 0.182

SMILES: N#CC1=CC=CC(C#N)=P1(c1ccccc1)c1ccccc1
- photoluminescence quantum yield (in ClC(Cl)Cl): 0.92

SMILES: Ic1ccc(-c2c3ccc(=[N+]4CCCCC4)cc-3oc3cc(N4CCCCC4)ccc23)cc1
- photoluminescence quantum yield (in CCO): 0.28
- photoluminescence quantum yield (in ClCCl): 0.85

SMILES: C(=C\c1ccncn1)/c1ccc(N2CCCCC2)cc1
- photoluminescence quantum yield (in ClCCl): 0.13

SMILES: Nc1ccc2c(c1)C(=O)O/C2=C\c1ccc(Cl)cc1
- photoluminescence quantum yield (in CC#N): 0.08
- photoluminescence quantum yield (in CC(C)=O): 0.1
- photoluminescence quantum yield (in CC(C)CO): 0.2
- photoluminescence quantum yield (in CC(C)O): 0.18
- photoluminescence quantum yield (in CCCO): 0.18
- photoluminescence quantum yield (in CCO): 0.17
- photoluminescence quantum yield (in CCOC(C)=O): 0.11
- photoluminescence quantum yield (in CCOCC): 0.12
- photoluminescence quantum yield (in CO): 0.14

SMILES: COC(=O)/C(C#N)=c1\s/c(=c2/s/c(=C(/C#N)C(=O)OC)c3cc(-c4ccc(OC)cc4)sc23)c2sc(-c3ccc(OC)cc3)cc12
- photoluminescence quantum yield (in Cc1ccccc1): 0.424

SMILES: CCCCCCN1C(=O)c2cccc3c(-c4ccc(C)s4)ccc(c23)C1=O
- photoluminescence quantum yield (in ClC(Cl)Cl): 0.78

SMILES: C=Cc1cc2ccc(OC(=O)c3ccccc3)cc2oc1=O
- photoluminescence quantum yield (in CC#N): 0.23

SMILES: COc1ccc(O)c(-c2[nH]c(=O)n3c2-c2ccccc2C3=O)c1
- photoluminescence quantum yield (in CC#N): 0.46
- photoluminescence quantum yield (in CO): 0.01
- photoluminescence quantum yield (in ClCCl): 0.66

SMILES: c1ccc(-c2nc(-c3ccccc3)nc(-c3cc(-n4c5ccccc5c5ncccc54)cc(-n4c5ccccc5c5ncccc54)c3)n2)cc1
- photoluminescence quantum yield (in O=P(c1ccccc1)(c1ccccc1)c1ccc2oc3ccc(P(=O)(c4ccccc4)c4ccccc4)cc3c2c1): 0.21

SMILES: N#Cc1ccc(/C=C/c2ccc(C=C(c3ccccc3)c3ccccc3)cc2)cc1
- photoluminescence quantum yield (in C1CCOC1): 0.166

SMILES: O=C(O)c1c2ccccc2c(C(=O)O)c2ccccc12
- photoluminescence quantum yield (in C1CCOC1): 0.66
- photoluminescence quantum yield (in CN(C)C=O): 0.4

SMILES: C[n+]1ccc(/C=C/c2cc[n+](C)cc2)cc1
- photoluminescence quantum yield (in CC#N): 0.015

SMILES: CC[n+]1nc2cc3c4c(c2c2cc(F)ccc21)CCCN4CCC3
- photoluminescence quantum yield (in O): 0.34

SMILES: Cc1ccc2cc(C)ccc2c1
- photoluminescence quantum yield (in C1CCCCC1): 0.59

SMILES: CCOC(=O)/N=c1/oc2cc(OC)ccc2cc1C#N
- photoluminescence quantum yield (in ClCCl): 0.0065

SMILES: c1ccc(-c2nn(-c3ccccc3)c3nc4ccc(-n5c6ccccc6c6ccccc65)cc4cc23)cc1
- photoluminescence quantum yield (in C1CCCCC1): 0.88
- photoluminescence quantum yield (in C1CCOC1): 0.81
- photoluminescence quantum yield (in CC#N): 0.72
- photoluminescence quantum yield (in CC(C)=O): 0.72
- photoluminescence quantum yield (in CCCCCl): 0.88
- photoluminescence quantum yield (in CCCCOCCCC): 0.7
- photoluminescence quantum yield (in CN(C)C=O): 0.76

SMILES: CCn1c2ccccc2c2cc(/C=C3\C(=O)c4ccccc4S3(=O)=O)ccc21
- photoluminescence quantum yield (in C1CCOC1): 0.029
- photoluminescence quantum yield (in C1COCCO1): 0.025
- photoluminescence quantum yield (in CC#N): 0.023
- photoluminescence quantum yield (in CC(C)=O): 0.042
- photoluminescence quantum yield (in CCOC(C)=O): 0.039
- photoluminescence quantum yield (in CN(C)C=O): 0.033
- photoluminescence quantum yield (in CO): 0.003
- photoluminescence quantum yield (in CS(C)=O): 0.083
- photoluminescence quantum yield (in Cc1ccccc1): 0.014
- photoluminescence quantum yield (in ClC(Cl)Cl): 0.04
- photoluminescence quantum yield (in ClCCl): 0.04

SMILES: CCOC(=O)c1cc(C(=O)OCC)c2cccc(OCc3ccccc3)c2n1
- photoluminescence quantum yield (in CCO): 0.2

SMILES: [BH3-][P+]1(c2ccccc2)c2ccccc2-c2sc3ccccc3c21 (stereo not drawn)
- photoluminescence quantum yield (in ClCCl): 0.38

SMILES: CCN(CC)c1ccc(-c2ccc(-c3nc(N4CCOCC4)c4ccccc4n3)s2)cc1
- photoluminescence quantum yield (in CC#N): 0.23
- photoluminescence quantum yield (in Cc1ccccc1): 0.67

SMILES: COc1nc(Cl)nc(Nc2ccc3c4c(cccc24)C(=O)c2ccccc2-3)n1
- photoluminescence quantum yield (in CC#N): 0.52
- photoluminescence quantum yield (in CC(C)=O): 0.54
- photoluminescence quantum yield (in CC(C)O): 0.5
- photoluminescence quantum yield (in CCCCOCCCC): 0.05
- photoluminescence quantum yield (in CCOC(C)=O): 0.34
- photoluminescence quantum yield (in CCOCC): 0.12
- photoluminescence quantum yield (in CO): 0.33
- photoluminescence quantum yield (in Cc1ccccc1): 0.27
- photoluminescence quantum yield (in Clc1ccccc1): 0.5
- photoluminescence quantum yield (in N#Cc1ccccc1): 0.58
- photoluminescence quantum yield (in O=C1CCCCC1): 0.51

SMILES: CCCCCCCCCCCCC(CCCCCCCCCC)Cn1c2cc(C=C(C#N)C#N)c3cccc4c5cccc6c(C=C(C#N)C#N)cc1c(c65)c2c34 (stereo not drawn)
- photoluminescence quantum yield (in C1CCCCC1): 0.13
- photoluminescence quantum yield (in CC#N): 0.151
- photoluminescence quantum yield (in Cc1ccccc1): 0.138
- photoluminescence quantum yield (in ClCCl): 0.115

SMILES: Cc1ccc2c(c1)nnn2-c1c(C#N)c2c(N)ncnc2n1[C@H]1C[C@H](O)[C@@H](CO)O1
- photoluminescence quantum yield (in CO): 0.007

SMILES: CCCCCCN(CCCCCC)c1ccc(C#Cc2ccc(/C=C/c3ccc(-c4ccc(/C=C/c5ccc(C#Cc6ccc(N(CCCCCC)CCCCCC)cc6)cc5)cc4)cc3)cc2)cc1
- photoluminescence quantum yield (in Cc1ccccc1): 0.8

More lines, now with the values ahead:

- photoluminescence quantum yield (in ClCCl): 0.35
SMILES: CCCCN(CCCC)c1ccc(C#Cc2cc(C#Cc3ccc(N(CCCC)CCCC)cc3)c(C#Cc3ccc(C#N)cc3)cc2C#Cc2ccc(C#N)cc2)cc1

- photoluminescence quantum yield (in C1CCOC1): 0.01
SMILES: O=C1c2cc(-c3ccccc3)ccc2-c2ccc(-c3ccccc3)cc21

- photoluminescence quantum yield (in CCCCCC): 0.28
SMILES: CC(C)(C)c1cc2cc(N(c3ccccc3)c3ccccc3)c3cc(C(C)(C)C)cc4cc(N(c5ccccc5)c5ccccc5)c(c1)c2c43

- photoluminescence quantum yield (in CN(C)C=O): 0.91
SMILES: NCCCCCCCCCCCCN1C(=O)c2ccc3c4ccc5c6c(ccc(c7ccc(c2c37)C1=O)c64)C(=O)N(c1ccc(O)cc1)C5=O

- photoluminescence quantum yield (in C1CCOC1): 0.45
SMILES: COc1cc2c(cc1-c1ccc(C(F)(F)F)cc1)Cc1c3c(c4c(c1-2)-c1cc(OC)c(-c2ccc(C(F)(F)F)cc2)cc1C4)C(=O)N(CCC(C)C)C3=O

- photoluminescence quantum yield (in C1CCOC1): 0.19
SMILES: CCCCn1c2ccccc2c2c1c1c3ccccc3n(CCCC)c1c1c3ccccc3n(CCCC)c21

- photoluminescence quantum yield (in CS(C)=O): 0.57
SMILES: COc1ccc(-c2cc(/C=C/c3ccc(N(c4ccccc4)c4ccccc4)cc3)c(C#N)c(N3CCCCC3)c2)cc1

- photoluminescence quantum yield (in ClCCl): 0.1
SMILES: CC(C)(C)c1ccc2c(c1)c1ncncc1c1c3ccccc3sc21

- photoluminescence quantum yield (in CC#N): 0.05
- photoluminescence quantum yield (in ClCCl): 0.98
SMILES: COC(=O)c1cc(=O)n(Cc2ccccc2)c2cc(-c3ccc(N(C)C)cc3)sc12

- photoluminescence quantum yield (in ClCCl): 0.42
SMILES: O=P1(c2ccccc2)C(c2ccc(C(F)(F)F)cc2)=Cc2cc3ccccc3cc21 (stereo not drawn)

- photoluminescence quantum yield (in ClC(Cl)Cl): 0.72
SMILES: CCC1=C(CC)C(C)=[N+]2C1=Cc1c(C)c3cc4c(cc3n1[B-]2(F)F)=[N+]1C(=Cc2c(CC)c(CC)c(C)n2[B-]1(F)F)C=4C

- photoluminescence quantum yield (in ClC(Cl)Cl): 0.63
SMILES: CC(C)C1=c2c(c3[nH]cc(C(C)C)c3c3ccccc23)=[N+]2C1=Cc1c(C(C)C)c3c4ccccc4c4c(C(C)C)c[nH]c4c3n1[B-]2(F)F

- photoluminescence quantum yield (in ClC(Cl)Cl): 0.057
SMILES: CC(C)(C)c1ccc2oc3nc4oc5ccc(N6c7ccccc7Oc7ccccc76)cc5c4cc3c2c1

- photoluminescence quantum yield (in CO): 0.87
SMILES: CCN(CC)c1ccc(C2=C3C(C)=CC(/C=C/c4ccc(OCC(=O)OC)cc4)=[N+]3[B-](F)(F)n3c(C)cc(C)c32)cc1

- photoluminescence quantum yield (in CC#N): 0.52
- photoluminescence quantum yield (in CCO): 0.68
- photoluminescence quantum yield (in CN(C)C=O): 0.51
- photoluminescence quantum yield (in O): 0.3
SMILES: CCN(CC)c1ccc2c(-c3ccc(S(=O)(=O)[O-])cc3S(=O)(=O)[O-])c3ccc(=[N+](CC)CC)cc-3oc2c1

- photoluminescence quantum yield (in CCCCCC): 0.35
SMILES: COc1ccc2c(c1)N(c1ccc(C)cc1)c1cc3c(cc1=N2)Oc1c(cc(C(C)(C)C)cc1C(C)(C)C)N=3

- photoluminescence quantum yield (in CC#N): 0.066
SMILES: C[n+]1cc2ccc3c[n+](C)c4ccccc4c3c2c2ccccc21

- photoluminescence quantum yield (in CCO): 0.04
- photoluminescence quantum yield (in ClC(Cl)Cl): 0.33
SMILES: CCOC(=O)c1ccccc1-c1c2ccc(=[N+](CC)CC)cc-2oc2c1c(=O)oc1cc3c(cc12)CCCN3C

- photoluminescence quantum yield (in ClC(Cl)Cl): 0.24
SMILES: CCOC(=O)/C=C/C1=C(c2ccc(C)cc2)C2=Nc3c(-c4ccc(C)cc4)cc(-c4ccc(C)cc4)n3[B-](F)(F)[N+]2=C1c1ccc(C)cc1

- photoluminescence quantum yield (in ClCCl): 0.5
SMILES: CCCCC1C(=O)c2cc(Oc3ccc(C(C)(C)C)cc3)c3c4c(Oc5ccc(C(C)(C)C)cc5)cc5c6c(cc(Oc7ccc(C(C)(C)C)cc7)c(c7c(Oc8ccc(C(C)(C)C)cc8)cc(c2c37)C1=O)c64)C1=C(C5=O)c2ccc3ccccc3[n+]2[B-](F)(F)O1 (stereo not drawn)

- photoluminescence quantum yield (in C1CCCCC1): 0.31
- photoluminescence quantum yield (in CCOC(C)=O): 0.05
SMILES: CC1=[N+]2C(=C(NC(C)c3ccccc3)c3ccc(C)n3[B-]2(F)F)C=C1c1cc2n(c1)[B-](F)(F)[N+]1=CC=CC1=C2c1c(C)cc(C)cc1C (stereo not drawn)

- photoluminescence quantum yield (in ClCCl): 0.52
SMILES: C(=C\c1ccncn1)/c1ccc(-c2ccc(N(c3ccccc3)c3ccccc3)cc2)cc1

- photoluminescence quantum yield (in C1COCCO1): 0.52
- photoluminescence quantum yield (in CC#N): 0.42
- photoluminescence quantum yield (in CCCCOCCCC): 0.5
- photoluminescence quantum yield (in CCOC(C)=O): 0.44
SMILES: c1ccc(Nc2nc(Nc3ccccc3)nc(Nc3ccc4c5cccc6cccc(c7cccc3c74)c65)n2)cc1

- photoluminescence quantum yield (in CC1CCCO1): 0.75
SMILES: CC1=CC(/C=C/c2ccc(C)cc2)=[N+]2C1=C(c1ccccc1)c1c(C)cc(/C=C/c3ccc(C)cc3)n1[B-]2(F)F

- photoluminescence quantum yield (in ClCCl): 0.78
SMILES: Cc1ccc(N(c2ccc(C)cc2)c2cc(N(c3ccc(C)cc3)c3ccc(C)cc3)c3ccc4cc(C(C)(C)C)cc5ccc2c3c54)cc1

Reference: the Deep4Chem optical property database
